In ChEMBL document CHEMBL4382262, “Structurally Simple, Readily Available Peptidomimetic 1-Benzyl-5-methyl-4-( n-octylamino)pyrimidin-2(1 H)-one Exhibited Efficient Cardioprotection in a Myocardial Ischemia (MI) Mouse Model” (J Med Chem, 2018) one finds Activity, fold change (FC) and inhibition data, which are given here for one molecule.

The test system of one data set is Cardiac muscle cell. The data set is described as follows: Cytotoxicity against Sprague-Dawley rat cardiomyocytes assessed as reduction in cell viability at 50 uM. The format is cell-based.
For data set [1], the target named is T1, Toll-like receptor 4 (Rattus norvegicus) (UniProt Q9QX05).
T1 sequence (whole entry): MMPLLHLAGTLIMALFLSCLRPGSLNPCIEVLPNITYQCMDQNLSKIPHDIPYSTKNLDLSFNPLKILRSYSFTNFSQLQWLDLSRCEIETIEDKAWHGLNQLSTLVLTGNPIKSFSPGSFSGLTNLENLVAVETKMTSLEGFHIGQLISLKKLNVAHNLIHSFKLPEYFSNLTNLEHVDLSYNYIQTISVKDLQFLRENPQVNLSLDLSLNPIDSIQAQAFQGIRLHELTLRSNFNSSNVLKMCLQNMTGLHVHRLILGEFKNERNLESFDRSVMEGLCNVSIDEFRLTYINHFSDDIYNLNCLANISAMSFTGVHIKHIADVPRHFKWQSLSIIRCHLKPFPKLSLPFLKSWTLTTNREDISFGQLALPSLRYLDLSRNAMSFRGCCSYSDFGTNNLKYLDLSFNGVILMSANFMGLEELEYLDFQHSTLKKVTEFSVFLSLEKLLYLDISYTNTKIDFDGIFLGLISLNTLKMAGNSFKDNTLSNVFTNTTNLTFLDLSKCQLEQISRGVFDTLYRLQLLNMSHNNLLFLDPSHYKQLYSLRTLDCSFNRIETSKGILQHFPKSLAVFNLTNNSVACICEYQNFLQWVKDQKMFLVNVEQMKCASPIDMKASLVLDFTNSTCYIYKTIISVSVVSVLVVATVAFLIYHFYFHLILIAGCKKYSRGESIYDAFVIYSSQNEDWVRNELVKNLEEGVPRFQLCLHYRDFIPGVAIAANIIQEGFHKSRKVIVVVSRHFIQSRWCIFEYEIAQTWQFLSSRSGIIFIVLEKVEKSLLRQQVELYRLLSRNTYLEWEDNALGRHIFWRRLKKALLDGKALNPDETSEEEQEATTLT
The data set is described as follows: Binding affinity to TLR4 in Sprague-Dawley rat cardiomyocytes at 20 uM after 2 hrs by MS/MS-based pull down assay. The format is cell-based.

Data set [2] has as its system Mus musculus. The experiment in a line: Cardioprotective activity in C57BL mouse model of left anterior descending coronary artery ligation-induced myocardial ischemia assessed as reduction in heart infarct size at 0.3 mg/kg, iv treated 1 hr after left anterior descending coronary artery ligation and measured after 7 days post LAD. The format is functional, organism-based.

In data set [3] the test system is Mus musculus. The data set is described as follows: Cardioprotective activity in C57BL mouse model of left anterior descending coronary artery ligation-induced myocardial ischemia assessed as reduction in heart infarct size at 0.05 to 1 mg/kg, iv pretreated for 1 hr followed by left anterior descending coronary artery ligation. Type of data set: functional, organism-based.

The target of data set [4] is T1, Toll-like receptor 4 (Rattus norvegicus). The data set is described as follows: Inhibition of TLR4 in Sprague-Dawley rat cardiomyocytes assessed as reduction in hypoxia-induced IRF3 protein expression at 20 uM preincubated for 1 hr followed by hypoxia for 3 hrs by Western blot analysis relative to untreated control. Type of data set: cell-based.
The target is the same in data set [5]. The experiment in a line: Inhibition of TLR4 in Sprague-Dawley rat cardiomyocytes assessed as reduction in hypoxia-induced creatine kinase levels at 20 uM preincubated for 1 hr followed by hypoxia for 3 hrs by NADP reduction based colorimetric analysis. The format is cell-based.
Data set [6] deals with Mus musculus. The experiment in a line: Cardioprotective activity in C57BL mouse model of left anterior descending coronary artery ligation-induced myocardial ischemia assessed as reduction in troponin levels at 0.3 mg/kg, iv pretreated for 1 hr followed by left anterior descending coronary artery ligation. The format is functional, organism-based.
For data set [7], the target named is T1, Toll-like receptor 4 (Rattus norvegicus). The experiment in a line: Inhibition of TLR4 in Sprague-Dawley rat cardiomyocytes assessed as reduction in hypoxia-induced LDH release at 10 uM preincubated for 1 hr followed by hypoxia for 3 hrs by NADH detection based colorimetric analysis. Type of data set: cell-based. (In general: Release of lactate dehydrogenase indicates damage to the cell membrane.)

The target is the same in data set [8]. The experiment in a line: Inhibition of TLR4 in Sprague-Dawley rat cardiomyocytes assessed as reduction in hypoxia-induced creatine kinase levels at 10 uM preincubated for 1 hr followed by hypoxia for 3 hrs by NADP reduction based colorimetric analysis. The format is cell-based.
Data set [9] concerns Mus musculus. The data set is described as follows: Cardioprotective activity in C57BL mouse model of left anterior descending coronary artery ligation-induced myocardial ischemia assessed as reduction in fibrosis at 0.3 mg/kg, iv treated 1 hr after left anterior descending coronary artery ligation and measured after 7 days post LAD by hematoxylin/eosin staining based light microscopy. The format is functional, organism-based.

Data set [10] has as its target T1, Toll-like receptor 4 (Rattus norvegicus). The experiment in a line: Inhibition of TLR4 in Sprague-Dawley rat cardiomyocytes assessed as reduction in hypoxia-induced creatine kinase levels at 30 uM preincubated for 1 hr followed by hypoxia for 3 hrs by NADP reduction based colorimetric analysis. The format is cell-based.
The subject of data set [11] is Mus musculus. The experiment in a line: Cardioprotective activity in C57BL mouse model of left anterior descending coronary artery ligation-induced myocardial ischemia assessed as reduction in creatine kinase levels at 0.3 mg/kg, iv pretreated for 1 hr followed by left anterior descending coronary artery ligation. Type of data set: functional, organism-based.

Active and inactive are the calls of the source. The rule behind the calls is not given here.

As to `CCCCCCCCNc1nc(=O)n(Cc2ccccc2)cc1C`, the Activity result with Cardiac muscle cell is reported as “Toxic”. The outcome (in [1]; in the data set on Mus musculus [2]; in the data set with Mus musculus [3]; with Mus musculus [6]; with Mus musculus [9]; in the data set with Mus musculus [11]) was Active. For the same molecule, the fold change (FC) in data set [4] was 2.7. Moreover, the inhibition entry in data set [5], in data set [7], in [8] and in data set [10] was “Active” each time.
